In PubChem BioAssay AID2060889 (Molecular Pharmacology Branch, DTP, NCI, 2025):

Tested on: LG0567-F671-PDC complex spheroids viability
Test: Anticancer human tumor LG0567-F671-PDC patient-derived lung adenocarcinoma cell line growth inhibition [RAS]
Conditions: for IC50: curve of first compound; for viability, T/C: stronger effect = lower value; active = viability on the fitted dose curve at most 10% of control; inactive = the rest
In short: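 Multi-cell-type spheroids: tumor cells plus HUVEC endothelial cells and mesenchymal stem cells. RAS-pathway inhibitors were combined with targeted agents, each dosed in half-log steps down from clinical Cmax, or from 10 microM when Cmax was unknown.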
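Also: spheroids exposed to compound for seven days before readout.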
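For IC50 in this document: luminescence signal used as a proxy for viable cells.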

CCC(CC)c1cc(NC2CCC(N)C2)n2nccc2n1 (centres undefined) + CCn1c(-c2cccnc2C(C)OC)c2c3cc(ccc31)N1CCOC(CC(NC(=O)C(C(C)C)N(C)C(=O)C3(F)CCN(C(=O)C#CC(C)(C)N(C)C)CC3)C(=O)N3CCCC(N3)C(=O)OCC(C)(C)C2)C1
< 0.0316 µM: IC50 (second compound 0.000949 µM) | IC50 (second compound 0.003 µM) | IC50 (second compound 0.00949 µM) | IC50 (second compound 0.03 µM) | IC50 (second compound 0.0949 µM) | IC50 (second compound 0.3 µM)
active: viability, T/C (second compound 0.000949 µM, first compound 3.16 µM) 4.31% | viability, T/C (second compound 0.000949 µM, first compound 10 µM) 0.82% | viability, T/C (second compound 0.003 µM, first compound 1 µM) 13.5% | viability, T/C (second compound 0.003 µM, first compound 3.16 µM) 4.44% | viability, T/C (second compound 0.003 µM, first compound 10 µM) 0.75% | viability, T/C (second compound 0.00949 µM, first compound 1 µM) 14.2% | viability, T/C (second compound 0.00949 µM, first compound 3.16 µM) 3.48% | viability, T/C (second compound 0.00949 µM, first compound 10 µM) 0.89% | viability, T/C (second compound 0.03 µM, first compound 1 µM) 12.3% | viability, T/C (second compound 0.03 µM, first compound 3.16 µM) 3.67% | viability, T/C (second compound 0.03 µM, first compound 10 µM) 0.88% | viability, T/C (second compound 0.0949 µM, first compound 0.316 µM) 10.4% | viability, T/C (second compound 0.0949 µM, first compound 1 µM) 12% | viability, T/C (second compound 0.0949 µM, first compound 3.16 µM) 4.19% | viability, T/C (second compound 0.0949 µM, first compound 10 µM) 1% | viability, T/C (second compound 0.3 µM, first compound 0.1 µM) 7.92% | viability, T/C (second compound 0.3 µM, first compound 0.316 µM) 8.86% | viability, T/C (second compound 0.3 µM, first compound 1 µM) 9.25% | viability, T/C (second compound 0.3 µM, first compound 3.16 µM) 3.79% | viability, T/C (second compound 0.3 µM, first compound 10 µM) 0.7%
inactive: viability, T/C (second compound 0.000949 µM, first compound 0.0316 µM) 21.2% | viability, T/C (second compound 0.000949 µM, first compound 0.1 µM) 16.6% | viability, T/C (second compound 0.000949 µM, first compound 0.316 µM) 13.3% | viability, T/C (second compound 0.000949 µM, first compound 1 µM) 13.9% | viability, T/C (second compound 0.003 µM, first compound 0.0316 µM) 14.1% | viability, T/C (second compound 0.003 µM, first compound 0.1 µM) 16.1% | viability, T/C (second compound 0.003 µM, first compound 0.316 µM) 14.6% | viability, T/C (second compound 0.00949 µM, first compound 0.0316 µM) 13.7% | viability, T/C (second compound 0.00949 µM, first compound 0.1 µM) 15% | viability, T/C (second compound 0.00949 µM, first compound 0.316 µM) 13.3% | viability, T/C (second compound 0.03 µM, first compound 0.0316 µM) 13.2% | viability, T/C (second compound 0.03 µM, first compound 0.1 µM) 13.2% | viability, T/C (second compound 0.03 µM, first compound 0.316 µM) 11.8% | viability, T/C (second compound 0.0949 µM, first compound 0.0316 µM) 10.6% | viability, T/C (second compound 0.0949 µM, first compound 0.1 µM) 12.2% | viability, T/C (second compound 0.3 µM, first compound 0.0316 µM) 8.88%

CCc1c2c(nc3ccc(O)cc13)-c1cc3c(c(=O)n1C2)COC(=O)[C@]3(O)CC + C#Cc1c(F)ccc2cc(O)cc(-c3ncc4c(N5CC6CCC(C5)N6)nc(OCC56CCCN5CC(F)C6)nc4c3F)c12
< 0.000949 µM: IC50 (second compound 1 µM) | IC50 (second compound 3.16 µM) | IC50 (second compound 10 µM)
0.0117 µM: IC50 (second compound 0.1 µM)
0.00233 µM: IC50 (second compound 0.316 µM)
inactive: viability, T/C (second compound 0.0316 µM, first compound 0.000949 µM) 82.4% | viability, T/C (second compound 0.0316 µM, first compound 0.003 µM) 67.4% | viability, T/C (second compound 0.0316 µM, first compound 0.00949 µM) 56.8% | viability, T/C (second compound 0.0316 µM, first compound 0.03 µM) 44.4% | viability, T/C (second compound 0.0316 µM, first compound 0.0949 µM) 23.6% | viability, T/C (second compound 0.1 µM, first compound 0.000949 µM) 73.3% | viability, T/C (second compound 0.1 µM, first compound 0.003 µM) 61% | viability, T/C (second compound 0.1 µM, first compound 0.00949 µM) 54.8% | viability, T/C (second compound 0.1 µM, first compound 0.03 µM) 38.6% | viability, T/C (second compound 0.1 µM, first compound 0.0949 µM) 22.4% | viability, T/C (second compound 0.316 µM, first compound 0.000949 µM) 50.4% | viability, T/C (second compound 0.316 µM, first compound 0.003 µM) 53.3% | viability, T/C (second compound 0.316 µM, first compound 0.00949 µM) 41% | viability, T/C (second compound 0.316 µM, first compound 0.03 µM) 29.8% | viability, T/C (second compound 0.316 µM, first compound 0.0949 µM) 20.3% | viability, T/C (second compound 1 µM, first compound 0.000949 µM) 30.5% | viability, T/C (second compound 1 µM, first compound 0.003 µM) 29.1% | viability, T/C (second compound 1 µM, first compound 0.00949 µM) 26.7% | viability, T/C (second compound 1 µM, first compound 0.03 µM) 20.9% | viability, T/C (second compound 1 µM, first compound 0.0949 µM) 13.9% | viability, T/C (second compound 3.16 µM, first compound 0.000949 µM) 20% | viability, T/C (second compound 3.16 µM, first compound 0.003 µM) 15.3% | viability, T/C (second compound 3.16 µM, first compound 0.00949 µM) 15.6% | viability, T/C (second compound 3.16 µM, first compound 0.03 µM) 11.2% | viability, T/C (second compound 10 µM, first compound 0.000949 µM) 11% | viability, T/C (second compound 10 µM, first compound 0.003 µM) 10%
0.0161 µM: IC50 (second compound 0.0316 µM)
active: viability, T/C (second compound 0.0316 µM, first compound 0.3 µM) 6.15% | viability, T/C (second compound 0.1 µM, first compound 0.3 µM) 7.9% | viability, T/C (second compound 0.316 µM, first compound 0.3 µM) 7.35% | viability, T/C (second compound 1 µM, first compound 0.3 µM) 6.24% | viability, T/C (second compound 3.16 µM, first compound 0.0949 µM) 8.88% | viability, T/C (second compound 3.16 µM, first compound 0.3 µM) 4.31% | viability, T/C (second compound 10 µM, first compound 0.00949 µM) 10.1% | viability, T/C (second compound 10 µM, first compound 0.03 µM) 6.59% | viability, T/C (second compound 10 µM, first compound 0.0949 µM) 4.97% | viability, T/C (second compound 10 µM, first compound 0.3 µM) 3.6%
